Experimental data: PMC4585737, “Lipoproteins/peptides are sepsis-inducing toxins from bacteria that can be neutralized by synthetic anti-endotoxin peptides” (Scientific Reports, 2015)

Experiments:
[1] = tested on: Balb/C mice; experiment: Serum cytokine response in mice after intraperitoneal inoculation; type: in vivo, mouse; settings: 400 μg peptide i.p. immediately after 40 μg FSL-1, different site, n = 5
Protocol: Seven-week-old female SPF-free Balb/C mice of 20 g of body weight, approximately, were purchased from Harlan Spain (Harlan Interfauna Iberica S.A., Barcelona, Spain) and randomly distributed in experimental groups (at least 4 animals per group except for the determination of lethal dose (n = 3)). Sample size was calculated based on previous results with the same animal model. Animals were housed in individually ventilated cages (5 mice per cage) bedded with hardwood bedding. Mice were provided ad libitum access to feed and water and lighting was adjusted to a 14-hour light/10-hour dark cycle. During the experiments, the condition of the animals was monitored daily every 4 hours and animals displaying persistent motor ataxia and hunched posture were euthanized.
To study if FSL-1 had pro-inflammatory cytokine-inducing activity, animals were intraperitoneally inoculated with 40 μg of FSL-1 resuspended in 200 μl of pyrogen-free saline. Blood samples were taken both at 1.5 h or 4 h after FSL-1 challenge to measure TNFα and IL-6 levels. For this purpose, mice were anesthetised, a blood sample was obtained by the retroorbital plexus and serum cytokine levels were measured using Quantikine Immunoassays kits (R&D systems, Minneapolis, USA) following manufacturer’s instructions. Differences between groups were statistically analyzed using the Mann-Whitney U test.
To evaluate the ability of Aspidasept® to neutralize the FSL-1 induced pro-inflammatory cytokines, a group of animals received by the intraperitoneal route first 40 μg of FSL-1 and then 400 μg of the drug resuspended in 100 μl of pyrogen-free saline. This second injection was administered immediately after FSL-1 challenge at a different site of the peritoneum. TNFα and IL-6 levels were measured (see above) at 1.5 h or 4 h after challenge, respectively, coinciding with the peak of cytokine secretion, as determined in preliminary experiments.

[2] = tested on: human macrophages; experiment: TNFα production in human macrophages stimulated by LPS or LP, and its inhibition by SALP; type: cell-based
Protocol: In some stimulation experiments, also macrophages were used. Briefly, MNC were isolated from peripheral blood from healthy donors by the Hypaque-Ficoll gradient method. To differentiate the monocytes to macrophages cells were cultivated in Teflon bags in the presence of 2 ng/ml M-CSF in RPMI 1640 medium (endotoxin <0.01 EU/ml; Biochrom, Berlin, Germany) containing 100 U/ml penicillin, 100 μg/ml streptomycin, 2 mM L-glutamine and 4% heat-inactivated human serum type AB at 37 °C and 6% CO2. On day 6, cells were washed with PBS, detached by Trypsin-EDTA treatment and seeded at 1 × 10^6 cells/ml in complete medium in 96-well tissue culture dishes (Nunc, Wiesbaden, Germany). After stimulation of cells with various LP for 4 h, cell-free supernatants of duplicate samples were collected, pooled and stored at −20 °C until determination of cytokine content. Data shown are representative of at least three independent experiments.
LP preparations were pre-warmed for 30 min at 37 °C, and added to the cultures at 20 μl per well. In inhibition experiments, different SALP were added directly after LPS/LP/LTA administration. […]

GCKKYRRFRWKFKGKFWFWG [Aspidasept®, synthetic anti-LPS peptide (SALP), 20′mer, anti-septic therapeutic drug candidate]
inhibition of FSL-1 induced TNFα stimulation in mice ([1]; 1.5 h, p < 0.01): totally inhibited
reduction of FSL-1 induced IL-6 levels in mice ([1]; 4 h): slight reduction
inhibition of TNFα production ([2]; stimulus LP SitC 1000 and 100 ng/ml, 10:1 excess of peptide, three independent measurements): strong inhibition
inhibition of LP-dependent TNFα secretion ([2]; stimulus LP SitC, all tested concentrations, [LP]:[Pep] 1:10 and 1:100 weight%): almost totally abrogated
